Reference: paper PMC10924921, “Mi-2β promotes immune evasion in melanoma by activating EZH2 methylation” (Nature Communications, 2024)

What was measured:
Assay in all cases: biochemical
Parameters in all cases: KINOMEscan active-site competition binding panel (468 kinase assays), per cent of control at 1000 nM
Conditions in all cases: KINOMEscan per cent of control (binding competition); read-out: Percent Control
ACVR2A = ACVR2A (Homo sapiens, UniProt P27037)
Source text: (§1) Figure S7 / Percent Control

ACVR2B = ACVR2B (Homo sapiens, UniProt Q13705)
Source text: as §1

ARK5 = target: T1, ARK5 (Homo sapiens, UniProt O60285)
T1 construct: gene NUAK1
Source text: as §1

BMPR1A = BMPR1A (Homo sapiens, UniProt P36894)
Source text: as §1

BMPR1B = BMPR1B (Homo sapiens, UniProt O00238)
Source text: as §1

BMX = BMX (Homo sapiens, UniProt P51813)
Source text: as §1

CDKL3 = CDKL3 (Homo sapiens, UniProt Q8IVW4)
Source text: as §1

CSNK1G3 = CSNK1G3 (Homo sapiens, UniProt Q9Y6M4)
Source text: as §1

CTK = target: T2, CTK (Homo sapiens, UniProt P42679)
T2 construct: gene MATK
Source text: as §1

EIF2AK1 = EIF2AK1 (Homo sapiens, UniProt Q9BQI3)
Source text: as §1

EPHA3 = EPHA3 (Homo sapiens, UniProt P29320)
Source text: as §1

GAK = GAK (Homo sapiens, UniProt O14976)
Source text: as §1

GSK3A = GSK3A (Homo sapiens, UniProt P49840)
Source text: as §1

LRRK2 = LRRK2 (Homo sapiens, UniProt Q5S007)
Source text: as §1

LYN = LYN (Homo sapiens, UniProt P07948)
Source text: as §1

MERTK = MERTK (Homo sapiens, UniProt Q12866)
Source text: as §1

MUSK = MUSK (Homo sapiens, UniProt O15146)
Source text: as §1

NIK = target: T3, NIK (Homo sapiens, UniProt Q99558)
T3 construct: gene MAP3K14
Source text: as §1

PRKCD = PRKCD (Homo sapiens, UniProt Q05655)
Source text: as §1

PRKCH = PRKCH (Homo sapiens, UniProt P24723)
Source text: as §1

[1] = target: T4, RSK1(Kin.Dom.1-N-terminal) (Homo sapiens, UniProt Q15418)
T4 construct: gene RPS6KA1; Kin.Dom.1-N-terminal
Source text: as §1

[2] = target: T5, RSK2(Kin.Dom.2-C-terminal) (Homo sapiens, UniProt P51812)
T5 construct: gene RPS6KA3; Kin.Dom.2-C-terminal
Source text: as §1

STK33 = STK33 (Homo sapiens, UniProt Q9BYT3)
Source text: as §1

STK36 = STK36 (Homo sapiens, UniProt Q9NRP7)
Source text: as §1

WNK3 = WNK3 (Homo sapiens, UniProt Q9BYP7)
Source text: as §1

Sequence of PRKCH (P24723 whole entry): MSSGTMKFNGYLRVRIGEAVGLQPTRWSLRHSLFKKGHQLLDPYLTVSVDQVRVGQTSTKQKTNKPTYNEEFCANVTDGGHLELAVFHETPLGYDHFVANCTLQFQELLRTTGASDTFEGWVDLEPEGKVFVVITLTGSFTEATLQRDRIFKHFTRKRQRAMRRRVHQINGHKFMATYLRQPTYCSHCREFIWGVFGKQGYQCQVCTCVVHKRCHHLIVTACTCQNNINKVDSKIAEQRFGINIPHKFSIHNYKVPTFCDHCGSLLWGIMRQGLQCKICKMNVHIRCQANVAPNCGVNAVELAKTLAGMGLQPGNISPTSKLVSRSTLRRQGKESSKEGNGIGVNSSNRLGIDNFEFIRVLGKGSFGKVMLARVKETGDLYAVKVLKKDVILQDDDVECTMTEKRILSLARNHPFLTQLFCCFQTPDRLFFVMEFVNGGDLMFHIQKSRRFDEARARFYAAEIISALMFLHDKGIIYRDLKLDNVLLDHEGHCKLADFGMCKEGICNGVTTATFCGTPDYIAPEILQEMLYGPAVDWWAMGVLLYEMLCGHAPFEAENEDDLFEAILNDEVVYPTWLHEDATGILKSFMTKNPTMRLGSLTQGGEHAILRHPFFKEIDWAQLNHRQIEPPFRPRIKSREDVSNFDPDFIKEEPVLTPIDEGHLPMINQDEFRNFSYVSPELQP
T5 sequence (P51812 whole entry): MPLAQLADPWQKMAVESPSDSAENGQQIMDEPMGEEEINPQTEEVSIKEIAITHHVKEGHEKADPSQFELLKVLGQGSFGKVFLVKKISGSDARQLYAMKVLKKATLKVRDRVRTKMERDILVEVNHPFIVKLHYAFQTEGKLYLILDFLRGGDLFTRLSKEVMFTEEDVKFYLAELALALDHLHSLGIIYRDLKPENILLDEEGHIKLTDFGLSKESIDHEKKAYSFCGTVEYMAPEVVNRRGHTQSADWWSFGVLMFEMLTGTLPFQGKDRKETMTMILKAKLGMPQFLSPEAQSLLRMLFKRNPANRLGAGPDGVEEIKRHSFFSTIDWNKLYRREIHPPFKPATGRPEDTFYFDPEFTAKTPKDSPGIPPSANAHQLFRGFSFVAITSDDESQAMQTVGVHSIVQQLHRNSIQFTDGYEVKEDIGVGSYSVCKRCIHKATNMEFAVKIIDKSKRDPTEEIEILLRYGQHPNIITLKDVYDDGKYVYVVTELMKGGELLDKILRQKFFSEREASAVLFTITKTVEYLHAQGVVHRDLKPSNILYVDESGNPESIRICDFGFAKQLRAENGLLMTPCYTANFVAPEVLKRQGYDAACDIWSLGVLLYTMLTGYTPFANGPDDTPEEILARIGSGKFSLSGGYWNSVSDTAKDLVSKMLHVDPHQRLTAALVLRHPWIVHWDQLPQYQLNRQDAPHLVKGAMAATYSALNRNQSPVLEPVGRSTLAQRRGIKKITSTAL
Sequence of ACVR2B (Q13705 whole entry): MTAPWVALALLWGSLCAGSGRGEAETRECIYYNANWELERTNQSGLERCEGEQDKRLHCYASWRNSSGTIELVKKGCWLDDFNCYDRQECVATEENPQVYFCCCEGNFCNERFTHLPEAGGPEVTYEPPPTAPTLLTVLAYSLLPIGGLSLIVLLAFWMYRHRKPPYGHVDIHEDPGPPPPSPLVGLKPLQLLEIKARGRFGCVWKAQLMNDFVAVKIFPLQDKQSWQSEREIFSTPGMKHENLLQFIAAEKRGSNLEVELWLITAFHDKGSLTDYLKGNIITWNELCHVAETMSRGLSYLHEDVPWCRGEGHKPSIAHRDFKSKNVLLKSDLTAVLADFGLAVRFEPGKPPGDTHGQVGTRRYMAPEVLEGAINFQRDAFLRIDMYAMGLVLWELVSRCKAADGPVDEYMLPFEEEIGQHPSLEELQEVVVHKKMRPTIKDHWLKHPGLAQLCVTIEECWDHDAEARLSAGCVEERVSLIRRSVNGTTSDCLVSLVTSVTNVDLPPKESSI
T4 sequence (Q15418 whole entry): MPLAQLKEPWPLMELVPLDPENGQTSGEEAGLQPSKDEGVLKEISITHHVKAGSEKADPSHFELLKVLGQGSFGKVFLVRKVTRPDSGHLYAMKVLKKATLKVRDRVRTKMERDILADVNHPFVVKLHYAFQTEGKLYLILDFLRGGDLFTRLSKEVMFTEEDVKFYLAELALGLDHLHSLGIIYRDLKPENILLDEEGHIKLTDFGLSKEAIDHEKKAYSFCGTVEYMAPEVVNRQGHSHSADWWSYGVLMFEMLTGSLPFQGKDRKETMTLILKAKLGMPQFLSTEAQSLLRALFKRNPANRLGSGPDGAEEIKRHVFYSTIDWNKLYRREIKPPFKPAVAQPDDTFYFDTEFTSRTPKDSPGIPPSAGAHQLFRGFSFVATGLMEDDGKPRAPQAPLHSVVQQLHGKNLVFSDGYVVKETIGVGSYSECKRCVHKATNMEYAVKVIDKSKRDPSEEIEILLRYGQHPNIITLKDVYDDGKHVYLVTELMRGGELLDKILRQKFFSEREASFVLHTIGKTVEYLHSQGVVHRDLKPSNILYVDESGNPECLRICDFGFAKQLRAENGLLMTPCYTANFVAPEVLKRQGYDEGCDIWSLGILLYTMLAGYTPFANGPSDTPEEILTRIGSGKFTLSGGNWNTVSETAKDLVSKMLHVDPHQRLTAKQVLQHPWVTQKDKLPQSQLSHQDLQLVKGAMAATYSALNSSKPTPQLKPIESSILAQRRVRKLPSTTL
Sequence of GSK3A (P49840 whole entry): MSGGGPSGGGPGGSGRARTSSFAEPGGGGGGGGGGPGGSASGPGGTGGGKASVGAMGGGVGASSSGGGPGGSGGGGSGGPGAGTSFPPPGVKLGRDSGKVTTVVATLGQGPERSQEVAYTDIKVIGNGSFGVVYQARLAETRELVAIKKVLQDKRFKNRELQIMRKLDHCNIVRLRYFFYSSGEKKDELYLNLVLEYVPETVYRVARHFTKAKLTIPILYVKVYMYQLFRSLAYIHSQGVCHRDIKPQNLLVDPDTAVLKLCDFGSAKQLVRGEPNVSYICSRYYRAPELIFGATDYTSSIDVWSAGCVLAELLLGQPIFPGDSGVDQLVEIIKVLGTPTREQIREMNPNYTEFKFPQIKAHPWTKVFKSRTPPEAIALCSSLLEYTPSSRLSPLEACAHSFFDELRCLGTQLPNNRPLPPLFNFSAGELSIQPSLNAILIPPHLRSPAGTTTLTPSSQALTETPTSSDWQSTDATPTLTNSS
Sequence of BMPR1A (P36894 whole entry): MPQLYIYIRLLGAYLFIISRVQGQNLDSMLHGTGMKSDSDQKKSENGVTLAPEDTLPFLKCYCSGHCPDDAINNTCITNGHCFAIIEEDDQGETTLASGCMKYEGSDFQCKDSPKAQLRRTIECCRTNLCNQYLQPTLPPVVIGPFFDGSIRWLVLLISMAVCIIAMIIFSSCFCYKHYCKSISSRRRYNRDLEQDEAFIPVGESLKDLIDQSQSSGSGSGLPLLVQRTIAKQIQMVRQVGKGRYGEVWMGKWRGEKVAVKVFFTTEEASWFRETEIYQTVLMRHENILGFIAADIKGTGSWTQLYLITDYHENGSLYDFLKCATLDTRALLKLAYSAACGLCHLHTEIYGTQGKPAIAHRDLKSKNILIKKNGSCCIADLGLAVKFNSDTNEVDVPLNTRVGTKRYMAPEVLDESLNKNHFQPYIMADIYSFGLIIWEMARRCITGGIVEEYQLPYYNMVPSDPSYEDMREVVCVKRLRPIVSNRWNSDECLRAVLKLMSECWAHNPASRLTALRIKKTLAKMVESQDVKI
T2 sequence (P42679 whole entry): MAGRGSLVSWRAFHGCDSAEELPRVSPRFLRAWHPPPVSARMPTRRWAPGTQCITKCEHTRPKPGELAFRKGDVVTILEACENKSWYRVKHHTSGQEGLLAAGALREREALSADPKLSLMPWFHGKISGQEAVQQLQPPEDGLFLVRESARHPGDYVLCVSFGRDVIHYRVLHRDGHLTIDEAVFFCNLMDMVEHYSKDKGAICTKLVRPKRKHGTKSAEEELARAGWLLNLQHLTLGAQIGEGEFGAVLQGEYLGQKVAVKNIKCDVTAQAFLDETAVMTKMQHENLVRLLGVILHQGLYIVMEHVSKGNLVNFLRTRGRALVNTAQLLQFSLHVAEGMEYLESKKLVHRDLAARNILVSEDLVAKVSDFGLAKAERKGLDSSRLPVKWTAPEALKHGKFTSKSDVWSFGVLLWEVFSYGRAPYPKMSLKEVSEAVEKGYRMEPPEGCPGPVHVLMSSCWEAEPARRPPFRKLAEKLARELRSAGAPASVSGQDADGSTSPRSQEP
T1 sequence (O60285 whole entry): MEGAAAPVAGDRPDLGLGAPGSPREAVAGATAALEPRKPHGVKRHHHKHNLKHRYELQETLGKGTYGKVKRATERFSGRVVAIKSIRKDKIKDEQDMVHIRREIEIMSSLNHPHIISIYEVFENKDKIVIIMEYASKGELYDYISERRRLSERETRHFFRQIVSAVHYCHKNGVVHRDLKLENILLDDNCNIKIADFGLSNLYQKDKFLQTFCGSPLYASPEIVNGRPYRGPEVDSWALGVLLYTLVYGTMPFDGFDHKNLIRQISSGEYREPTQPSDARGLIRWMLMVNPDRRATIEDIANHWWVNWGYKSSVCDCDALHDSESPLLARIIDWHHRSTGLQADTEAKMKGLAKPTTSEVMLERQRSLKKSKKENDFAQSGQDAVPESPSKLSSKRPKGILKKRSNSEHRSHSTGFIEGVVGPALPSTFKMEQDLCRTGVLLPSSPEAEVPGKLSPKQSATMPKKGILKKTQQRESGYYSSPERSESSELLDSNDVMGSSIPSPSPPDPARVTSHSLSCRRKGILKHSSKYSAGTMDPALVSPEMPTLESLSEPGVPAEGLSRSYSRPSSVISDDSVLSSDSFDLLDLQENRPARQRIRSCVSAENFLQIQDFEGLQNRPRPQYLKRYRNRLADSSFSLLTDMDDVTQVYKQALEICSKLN

## Cn1c(=O)[nH]c2ccc(-c3cccc(C(=O)NC4CCn5ccnc5C4)c3)cc21 (stereo not shown) [Z36-MP5]
ACVR2A
  remaining binding at 1 µM: 57%
ACVR2B
  remaining binding at 1 µM: 91%
ARK5
  remaining binding at 1 µM: 98%
BMPR1A
  remaining binding at 1 µM: 100%
BMPR1B
  remaining binding at 1 µM: 55%
BMX
  remaining binding at 1 µM: 100%
CDKL3
  remaining binding at 1 µM: 59%
CSNK1G3
  remaining binding at 1 µM: 74%
CTK
  remaining binding at 1 µM: 61%
EIF2AK1
  remaining binding at 1 µM: 73%
EPHA3
  remaining binding at 1 µM: 93%
GAK
  remaining binding at 1 µM: 71%
GSK3A
  remaining binding at 1 µM: 95%
LRRK2
  remaining binding at 1 µM: 71%
LYN
  remaining binding at 1 µM: 77%
MERTK
  remaining binding at 1 µM: 70%
MUSK
  remaining binding at 1 µM: 83%
NIK
  remaining binding at 1 µM: 46%
PRKCD
  remaining binding at 1 µM: 97%
PRKCH
  remaining binding at 1 µM: 52%
[1]
  remaining binding at 1 µM: 93%
[2]
  remaining binding at 1 µM: 63%
STK33
  remaining binding at 1 µM: 92%
STK36
  remaining binding at 1 µM: 77%
WNK3
  remaining binding at 1 µM: 69%
